Columns and labels:
lung cancer cells A549 = experiment: MTT antiproliferative assay, A549; assay type: cell-based; conditions: Homo sapiens
Description: (§1) The human cancer cell lines A549, HepG2, MCF-7, Caco-2, and HeLa and the normal human liver cell line LO2 were all obtained from Shanghai Cell Bank of China. All cells were cultured in RPMI 1640 or DMEM supplemented with 10% fetal bovine serum, 100 U/mL penicillin, and 100 μg/mL streptomycin and incubated at 37°C under 5% CO2 (HEPA incubator class100 Thermo company). The medium was replaced three times a week. Cells used in all were in the exponential growth phase.
(§2) The cell inhibition rate was evaluated using the MTT assay. Briefly, cells were seeded in a 96-well plate at a density of 3–4 × 10^3 cells per well and incubated at 37°C for 24 h. The MCACs to be tested were dissolved in dimethyl sulfoxide (DMSO, Merck, Germany) and diluted to five concentrations (3.75, 7.5, 15, 30, 60 μM/L) with RPMI 1640 medium, with each dose analyzed in quadruplicate. The concentration of DMSO was always maintained below 1‰, a concentration that is nontoxic to cells. After incubation for 24 or 48 h, MTT reagent (5 mg/mL) was added to each well and the samples were incubated for 3 h at 37°C in the dark. The absorbance of formazan crystals dissolved in 150 µL of DMSO was measured at 570 nm using a microplate reader to identify the cytotoxic effect of the analogues.

[1] = system: breast cancer cells MCF-7; experiment: MTT antiproliferative assay, MCF-7; assay type: cell-based; conditions: Homo sapiens
Description: as §1, §2

[2] = system: normal human liver cell line LO2; experiment: MTT assay, normal liver cells LO2; assay type: cell-based
Description: as §1, §2

Caco-2 cells = experiment: Clonogenic assay; assay type: cell-based, human; conditions: 4, 8, or 16 μM/L, 6 h exposure
Description: Caco-2 cells were seeded into a 6-well plate at a density of 1 × 10^3 cells per well and incubated overnight. Then, the medium was replaced, and CA8 was added at the prescribed concentrations (4, 8, or 16 μM/L). After 6 h, the drug-containing medium was replaced with RPMI 1640 medium.
Caco-2 cells in 6-well plates were incubated for 1–2 weeks until the appearance of the colonies, followed by staining with crystal violet and incubation for 1 h at room temperature. After staining, images were captured accordingly.

KM mice = experiment: Acute toxicity experiment; assay type: in vivo; design: ALT / AST / ALP / CREA / UA / UREA: unit not given here; conditions: for tolerated dose: male, KM, 8 days; for ALP / ALT / AST / CREA / UA / UREA: serum, KM mice, Mean ± SE, n = 3
Description: All in vivo experimental protocols were approved by the animal care committee of the Southwest Medical University and conducted in strict accordance with the laboratory animal care and use of the adopted guidelines. […] Twenty-one male KM mice were obtained from the Animal Center of Southwest Medical University and subjected to 1 week of acclimatization before the experiment. Then, the mice were randomly divided into the different groups. CA8 was administered via intraperitoneal injection and oral administration to assess its safety. The oral and injection doses were 5, 50, and 300 mg/kg and 2, 10, and 50 mg/kg, respectively. The body weight of all animals was recorded every day, and their blood samples were collected to analyze relevant biochemical indicators on the 8th day of the experiment. The heart, liver, and kidney tissues of the mice were collected, embedded in paraffin, cut into slices, stained with hematoxylin and eosin (HE), and observed under a light microscope to determine potential pathological changes.

Caco-2 xenograft tumors = experiment: In vivo anticancer activity, Caco-2 xenograft
Description: Twenty 5-week-old male BALB nude mice purchased from SPF (Beijing) Biotechnology Co., Ltd. were used for the in vivo pharmacodynamic experiment of CA8. Caco-2 cells (6 × 10^6 cells in 100 μL PBS) were harvested and subcutaneously injected into the right hip of the mice. Then, they were divided into four groups when the tumor volume reached 100 mm^3 and treated with saline, CU (100 mg/kg), tegafur (50 mg/kg), or CA8 (100 mg/kg) via gavage every other day. Tumor size and body weight were measured and recorded every other day. At the end of the experiment, the mice were sacrificed and tumors were harvested and weighed. Tumor volumes were calculated by measuring length (L) and width (W) according to the following formula: V = 0.5 × L × W^2. The tumor tissue was embedded in paraffin, cut into slices, stained with HE, and observed under a light microscope.

For `COc1cc(/C=C2\CN(C(C)C)C/C(=C\c3cc(OC)c(O)c(OC)c3)C2=O)cc(OC)c1O` [CA8], the IC50 (lung cancer cells A549; A549, 24 h) was 5.66 ± 0.25 µM, the IC50 (lung cancer cells A549; A549, 48 h) was 9.31 ± 1.08 µM and the IC50 ([1]; MCF7, 24 h) was 10.9 ± 4.21 µM. For the same compound, the IC50 ([1]; MCF7, 48 h) was 7.23 ± 1.55 µM, the IC50 ([2]; 24 h) was 4.3 ± 0.21 µM and the IC50 ([2]; 48 h) was 2 ± 0.04 µM. The “Caco-2 colony formation” value (Caco-2 cells) was “showed Caco-2 colony formation inhibition”, the “liver and kidney histopathology” value (KM mice; different doses, HE staining) was “no significant pathological damage” and the tolerated dose (KM mice; mouse, in vivo, ip) was no more than 50 mg/kg. For the same compound, the tolerated dose (KM mice; mouse, in vivo, po) was “up to 300 mg/kg”, the “morbidity, death, behavior” value (KM mice; mouse, in vivo) was “No morbidities and deaths occurred” and the ALP (KM mice; single injection dose 2 mg/kg) was 220.33 ± 47.16. For the same compound, the ALT (KM mice; single injection dose 2 mg/kg) was 59.77 ± 3.00, the AST (KM mice; single injection dose 2 mg/kg) was 257.50 ± 114.60 and the CREA (KM mice; single injection dose 2 mg/kg) was 17.13 ± 3.30. It also gave a UA (KM mice; single injection dose 2 mg/kg) of 171.93 ± 1.10, a UREA (KM mice; single injection dose 2 mg/kg) of 6.84 ± 0.29 and an ALP (KM mice; single injection dose 10 mg/kg) of 175.93 ± 95.23. It also gave an ALT (KM mice; single injection dose 10 mg/kg) of 54.87 ± 3.50, an AST (KM mice; single injection dose 10 mg/kg) of 100.13 ± 28.26 and a CREA (KM mice; single injection dose 10 mg/kg) of 11.60 ± 1.60. The UA (KM mice; single injection dose 10 mg/kg) was 47.57 ± 14.59, the UREA (KM mice; single injection dose 10 mg/kg) was 6.84 ± 0.94 and the ALP (KM mice; single injection dose 50 mg/kg) was 226.47 ± 65.98. For the same compound, the ALT (KM mice; single injection dose 50 mg/kg) was 48.27 ± 2.77, the AST (KM mice; single injection dose 50 mg/kg) was 141.83 ± 50.47 and the CREA (KM mice; single injection dose 50 mg/kg) was 12.13 ± 1.12. The UA (KM mice; single injection dose 50 mg/kg) was 55.77 ± 13.47, the UREA (KM mice; single injection dose 50 mg/kg) was 9.19 ± 1.02 and the ALP (KM mice; single oral dose 5 mg/kg) was 208.57 ± 19.55. For the same compound, the ALT (KM mice; single oral dose 5 mg/kg) was 49.70 ± 5.25, the AST (KM mice; single oral dose 5 mg/kg) was 209.40 ± 69.21 and the CREA (KM mice; single oral dose 5 mg/kg) was 10.34 ± 0.87. For the same compound, the UA (KM mice; single oral dose 5 mg/kg) was 72.27 ± 18.54, the UREA (KM mice; single oral dose 5 mg/kg) was 6.70 ± 0.12 and the ALP (KM mice; single oral dose 50 mg/kg) was 299.77 ± 72.56. For the same compound, the ALT (KM mice; single oral dose 50 mg/kg) was 61.30 ± 1.30, the AST (KM mice; single oral dose 50 mg/kg) was 269.23 ± 67.81 and the CREA (KM mice; single oral dose 50 mg/kg) was 12.50 ± 2.78. It also gave a UA (KM mice; single oral dose 50 mg/kg) of 124.17 ± 19.83, a UREA (KM mice; single oral dose 50 mg/kg) of 6.53 ± 0.65 and an ALP (KM mice; single oral dose 300 mg/kg) of 266.97 ± 26.38. For the same compound, the ALT (KM mice; single oral dose 300 mg/kg) was 44.63 ± 11.95, the AST (KM mice; single oral dose 300 mg/kg) was 277.57 ± 160.53 and the CREA (KM mice; single oral dose 300 mg/kg) was 12.90 ± 1.61. For the same compound, the UA (KM mice; single oral dose 300 mg/kg) was 128.03 ± 33.61, the UREA (KM mice; single oral dose 300 mg/kg) was 7.80 ± 1.27 and the “blood parameters ALT, AST, ALP, CREA, UA, UREA vs control” value (KM mice; single oral and injection doses) was “no significant difference”. The tumor inhibition rate (Caco-2 xenograft tumors; Caco-2 xenograft nude mice, 100 mg/kg via gavage every other day) was 63.93%, the “HE staining of tumor mass” value (Caco-2 xenograft tumors; Caco-2 xenograft, 100 mg/kg) was “large necrotic area in the tumor mass” and the “inhibitory effect on tumor growth” value (Caco-2 xenograft tumors; Caco-2 xenograft, CA8 100 mg/kg, CU 100 mg/kg, tegafur 50 mg/kg, gavage every other day) was “more significant inhibitory effect on tumor growth than CU and tegafur”. For the same compound, the “body weight change / toxicity during therapy” value (Caco-2 xenograft tumors; nude mice, 13 days of therapy, 100 mg/kg gavage) was “did not lead to a significant toxicity”.
